Read-outs that look alike come from different tables or passages of the source.
Tested on: RS4;11 cells
Assay: RS4;11 cell viability assay (CellTiter Glo);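 note: acute lymphoblastic leukemia line RS4,11, EC50 derived from percentage of viable cells after treatment relative to untreated controls, cell killing taken as a measure of Bcl-2 inhibition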
Format: cell-based, human
Settings: read-out: RS4
[1] = Homo sapiens, RS4-11, 48 h, 50,000 cells per well, 10% human serum, 48 hours, 11 EC50 Values
[2] = Homo sapiens, RS4-11, Table 5, direct comparison Z=N with corresponding analogs Z=C, 11 EC50

Description: The acute lymphoblastic leukemia (ALL) cell line RS4;11 was used as the primary human cell line to assess the cellular activity of Bcl-2 selective agents in vitro and their efficacy in vivo.
Cell cytotoxicity EC50 values were assessed using CellTiter Glo (Promega) according to the manufacturer's recommendations. The EC50 values were determined as a percentage of viable cells following treatment compared to the untreated control cells.

Row | EC50 [1] | EC50 [2] | EC50 (50,000 cells per well, 10% human serum, 48 hours, 11 EC50 Values) | Compound
1 | > 1000 nM | – | – | CC1(C)CCC(CN2CCN(c3ccc(C(=O)NS(=O)(=O)c4ccc(NCC5CCCN(CC#N)C5)c([N+](=O)[O-])c4)c(Oc4cnc5[nH]ccc5c4)c3)CC2)=C(c2ccc(Cl)cc2)C1 (centres unmarked) [Example 229, 4-(4-{[2-(4-chlorophenyl)-4,4-dimethylcyclohex-1-en-1-yl]methyl}piperazin-1-yl)-N-{[4-({[1-(cyanomethyl)piperidin-3-yl]methyl}amino)-3-nitrophenyl]sulfonyl}-2-(1H-pyrrolo[2,3-b]pyridin-5-yloxy)benzamide]
2 | 99.7 nM | – | – | CC1(C)CCC(CN2CCN(c3ccc(C(=O)NS(=O)(=O)c4cnc(OCC5CCOCC5)c(Cl)c4)c(Oc4cnc5[nH]ccc5c4)c3)CC2)=C(c2ccc(Cl)cc2)C1 [Example 40, 4-(4-{[2-(4-chlorophenyl)-4,4-dimethylcyclohex-1-en-1-yl]methyl}piperazin-1-yl)-N-{[5-chloro-6-(tetrahydro-2H-pyran-4-ylmethoxy)pyridin-3-yl]sulfonyl}-2-(1H-pyrrolo[2,3-b]pyridin-5-yloxy)benzamide]
3 | 0.76 nM | – | – | CC1(C)CCC(CN2CCN(c3ccc(C(=O)NS(=O)(=O)c4ccc(OCC5(F)CCN(C6CCOC6)CC5)c([N+](=O)[O-])c4)c(Oc4cnc5[nH]ccc5c4)c3)CC2)=C(c2ccc(Cl)cc2)C1 (centres unmarked) [Example 193, 4-(4-{[2-(4-chlorophenyl)-4,4-dimethylcyclohex-1-en-1-yl]methyl}piperazin-1-yl)-N-({4-[(4-fluoro-1-tetrahydrofuran-3-ylpiperidin-4-yl)methoxy]-3-nitrophenyl}sulfonyl)-2-(1H-pyrrolo[2,3-b]pyridin-5-yloxy)benzamide]
4 | 272 nM | – | – | CC1(C)CC(c2ccc(Cl)cc2)=C(CN2CCN(c3ccc(C(=O)NS(=O)(=O)c4ccc(NCC5CCOCC5)c(S(=O)(=O)C(F)(F)F)c4)c(Oc4cnc5[nH]ccc5c4)c3)CC2)CO1 [Example 43, 4-(4-{[4-(4-chlorophenyl)-6,6-dimethyl-5,6-dihydro-2H-pyran-3-yl]methyl}piperazin-1-yl)-2-(1H-pyrrolo[2,3-b]pyridin-5-yloxy)-N-({4-[(tetrahydro-2H-pyran-4-ylmethyl)amino]-3-[(trifluoromethyl)sulfonyl]phenyl}sulfonyl)benzamide]
5 | 20.5 nM | – | – | CC1(C)CCC(CN2CCN(c3ccc(C(=O)NS(=O)(=O)c4ccc(NCC5CCN(C(CF)CF)CC5)c([N+](=O)[O-])c4)c(Oc4cnc5[nH]ccc5c4)c3)CC2)=C(c2ccc(Cl)cc2)C1 [Example 172, 4-(4-{[2-(4-chlorophenyl)-4,4-dimethylcyclohex-1-en-1-yl]methyl}piperazin-1-yl)-N-({4-[({1-[2-fluoro-1-(fluoromethyl)ethyl]piperidin-4-yl}methyl)amino]-3-nitrophenyl}sulfonyl)-2-(1H-pyrrolo[2,3-b]pyridin-5-yloxy)benzamide]
6 | 32.3 nM | – | – | CC1(C)CCC(CN2CCN(c3ccc(C(=O)NS(=O)(=O)c4ccc(O[C@@H]5CCN(C(CF)CF)C5)c([N+](=O)[O-])c4)c(Oc4cnc5[nH]ccc5c4)c3)CC2)=C(c2ccc(Cl)cc2)C1 [Example 235, 4-(4-{[2-(4-chlorophenyl)-4,4-dimethylcyclohex-1-en-1-yl]methyl}piperazin-1-yl)-N-[(4-{[(3R)-1-(1,3-difluoropropan-2-yl)pyrrolidin-3-yl]oxy}-3-nitrophenyl)sulfonyl]-2-(1H-pyrrolo[2,3-b]pyridin-5-yloxy)benzamide]
7 | 52.8 nM | – | – | CN1CCC(F)(COc2ccc(S(=O)(=O)NC(=O)c3ccc(N4CCN(CC5=C(c6ccc(Cl)cc6)CC(C)(C)CC5)CC4)cc3Oc3cnc4[nH]ccc4c3)cc2S(=O)(=O)C(F)(F)F)CC1 [Example 230, 4-(4-{[2-(4-chlorophenyl)-4,4-dimethylcyclohex-1-en-1-yl]methyl}piperazin-1-yl)-N-({4-[(4-fluoro-1-methylpiperidin-4-yl)methoxy]-3-[(trifluoromethyl)sulfonyl]phenyl}sulfonyl)-2-(1H-pyrrolo[2,3-b]pyridin-5-yloxy)benzamide]
8 | 12.7 nM | – | – | CC1(C)CCC(CN2CCN(c3ccc(C(=O)NS(=O)(=O)c4ccc(N[C@@H]5CCN(C6CCOC(C)(C)C6)C5)c([N+](=O)[O-])c4)c(Oc4cnc5[nH]ccc5c4)c3)CC2)=C(c2ccc(Cl)cc2)C1 (stereo partly drawn) [Example 131, 4-(4-{[2-(4-chlorophenyl)-4,4-dimethylcyclohex-1-en-1-yl]methyl}piperazin-1-yl)-N-[(4-{[(3R)-1-(2,2-dimethyltetrahydro-2H-pyran-4-yl)pyrrolidin-3-yl]amino}-3-nitrophenyl)sulfonyl]-2-(1H-pyrrolo[2,3-b]pyridin-5-yloxy)benzamide]
9 | 712 nM | 712 nM | – | O=C(NS(=O)(=O)c1ccc(NCC2CCOCC2)c([N+](=O)[O-])c1)c1ccc(N2CCN(Cc3ccccc3-c3ccc(Cl)cc3)CC2)cc1Oc1cnc2[nH]ccc2c1 [Example 1, 4-{4-[(4′-chloro-1,1′-biphenyl-2-yl)methyl]piperazin-1-yl}-N-({3-nitro-4-[(tetrahydro-2H-pyran-4-ylmethyl)amino]phenyl}sulfonyl)-2-(1H-pyrrolo[2,3-b]pyridin-5-yloxy)benzamide]
10 | 8.19 nM | – | – | CC1(C)CCC(CN2CCN(c3ccc(C(=O)NS(=O)(=O)c4ccc(OCC5(F)CCN(S(C)(=O)=O)CC5)c([N+](=O)[O-])c4)c(Oc4cnc5[nH]ccc5c4)c3)CC2)=C(c2ccc(Cl)cc2)C1 [Example 194, 4-(4-{[2-(4-chlorophenyl)-4,4-dimethylcyclohex-1-en-1-yl]methyl}piperazin-1-yl)-N-[(4-{[4-fluoro-1-(methylsulfonyl)piperidin-4-yl]methoxy}-3-nitrophenyl)sulfonyl]-2-(1H-pyrrolo[2,3-b]pyridin-5-yloxy)benzamide]
11 | 2.37 nM | – | – | COCCN1CCOC(CNc2ccc(S(=O)(=O)NC(=O)c3ccc(N4CCN(CC5=C(c6ccc(Cl)cc6)CC(C)(C)CC5)CC4)cc3Oc3cnc4[nH]ccc4c3)cc2[N+](=O)[O-])C1 (centres unmarked) [Example 135, 4-(4-{[2-(4-chlorophenyl)-4,4-dimethylcyclohex-1-en-1-yl]methyl}piperazin-1-yl)-N-{[4-({[4-(2-methoxyethyl)morpholin-2-yl]methyl}amino)-3-nitrophenyl]sulfonyl}-2-(1H-pyrrolo[2,3-b]pyridin-5-yloxy)benzamide]
12 | – | – | 5.06 nM | CC1(C)CCC(CN2CCN(c3ccc(C(=O)NS(=O)(=O)c4ccc(NCC56CC7CC(C5)C(O)C(C7)C6)c([N+](=O)[O-])c4)c(Oc4cnc5[nH]ccc5c4)c3)CC2)=C(c2ccc(Cl)cc2)C1 (centres unmarked) [Example 199, 4-(4-{[2-(4-chlorophenyl)-4,4-dimethylcyclohex-1-en-1-yl]methyl}piperazin-1-yl)-N-{[4-({[(E)-4-hydroxy-1-adamantyl]methyl}amino)-3-nitrophenyl]sulfonyl}-2-(1H-pyrrolo[2,3-b]pyridin-5-yloxy)benzamide]
13 | 32.6 nM | – | – | CN1CCC(COc2ncc(S(=O)(=O)NC(=O)c3ccc(N4CCN(CC5=C(c6ccc(Cl)cc6)CC(C)(C)CC5)CC4)cc3Oc3cnc4[nH]ccc4c3)cc2Br)CC1 [Example 47, N-({5-bromo-6-[(1-methylpiperidin-4-yl)methoxy]pyridin-3-yl}sulfonyl)-4-(4-{[2-(4-chlorophenyl)-4,4-dimethylcyclohex-1-en-1-yl]methyl}piperazin-1-yl)-2-(1H-pyrrolo[2,3-b]pyridin-5-yloxy)benzamide]
14 | 11.2 nM | – | – | CC1(C)CCC(CN2CCN(c3ccc(C(=O)NS(=O)(=O)c4cnc(NCC5CCOCC5)c([N+](=O)[O-])c4)c(Oc4cnc5[nH]ccc5c4)c3)CC2)=C(c2ccc(Cl)cc2)C1 [Example 364, 4-(4-{[2-(4-chlorophenyl)-4,4-dimethylcyclohex-1-en-1-yl]methyl}piperazin-1-yl)-N-({5-nitro-6-[(tetrahydro-2H-pyran-4-ylmethyl)amino]pyridin-3-yl}sulfonyl)-2-(1H-pyrrolo[2,3-b]pyridin-5-yloxy)benzamide]
15 | 12.4 nM | 12 nM | – | CC1(C)CCC(CN2CCN(c3ccc(C(=O)NS(=O)(=O)c4ccc(NCC5CCOCC5)c([N+](=O)[O-])c4)c(Oc4cnc5[nH]ccc5c4)c3)CC2)=C(c2ccc(Cl)cc2)C1 [Example 5, 4-(4-{[2-(4-chlorophenyl)-4,4-dimethylcyclohex-1-en-1-yl]methyl}piperazin-1-yl)-N-({3-nitro-4-[(tetrahydro-2H-pyran-4-ylmethyl)amino]phenyl}sulfonyl)-2-(1H-pyrrolo[2,3-b]pyridin-5-yloxy)benzamide]
16 | 23.7 nM | – | – | CC1(C)CCC(CN2CCN(c3ccc(C(=O)NS(=O)(=O)c4ccc(NCC5CCC(F)(F)CC5)c([N+](=O)[O-])c4)c(Oc4cnc5[nH]ccc5c4)c3)CC2)=C(c2ccc(Cl)cc2)C1 [Example 239, 4-(4-{[2-(4-chlorophenyl)-4,4-dimethylcyclohex-1-en-1-yl]methyl}piperazin-1-yl)-N-[(4-{[(4,4-difluorocyclohexyl)methyl]amino}-3-nitrophenyl)sulfonyl]-2-(1H-pyrrolo[2,3-b]pyridin-5-yloxy)benzamide]
17 | 32.2 nM | – | – | CC1(C)CCC(CN2CCN(c3ccc(C(=O)NS(=O)(=O)c4cnc(OCC5(F)CCN(C(CF)CF)CC5)c(Cl)c4)c(Oc4cnc5[nH]ccc5c4)c3)CC2)=C(c2ccc(Cl)cc2)C1 [Example 282, N-[(5-chloro-6-{[1-(1,3-difluoropropan-2-yl)-4-fluoropiperidin-4-yl]methoxy}pyridin-3-yl)sulfonyl]-4-(4-{[2-(4-chlorophenyl)-4,4-dimethylcyclohex-1-en-1-yl]methyl}piperazin-1-yl)-2-(1H-pyrrolo[2,3-b]pyridin-5-yloxy)benzamide]

Row | Compound | EC50 [1] | EC50 [2] | EC50 (50,000 cells per well, 10% human serum, 48 hours, 11 EC50 Values)
18 | O=C(NS(=O)(=O)c1ccc(NCCCN2CCOCC2)c([N+](=O)[O-])c1)c1ccc(N2CCN(Cc3ccccc3-c3ccc(Cl)cc3)CC2)cc1Oc1ccc2[nH]ccc2c1 [Example 88, 4-{4-[(4′-chloro-1,1′-biphenyl-2-yl)methyl]piperazin-1-yl}-2-(1H-indol-5-yloxy)-N-({4-[(3-morpholin-4-ylpropyl)amino]-3-nitrophenyl}sulfonyl)benzamide] | 447 nM | – | –

— patent US20240043404A1 (AbbVie Inc., priority 2009, published 2024)
